Consider 20 compounds from patent publication US10131679B2, “Substituted dihydropyrrolopyrazole compound” (UBE INDUSTRIES, LTD., priority 2014, dated 2018).

For one experiment, the target named is T1, CDK2 (Homo sapiens, UniProt P24941).
T1 construct: purchased Invitrogen Corp. PV3267
Put plainly: CDK2 enzyme inhibition test. In kind it is biochemical. The note with it: Ki=IC50/(1+S/Km); 33P bound to MBP, [γ-33P]ATP, 30° C. for 20 minutes; read-out: Ki value of CDK2 inhibitory activity. Summed up: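 Commercial CDK2 with MBP substrate and [γ-33P]ATP (500 μM solution, before mixing) in HEPES pH 7.4 buffer with DTT, Triton X-100 and MgCl2; 20 min at 30 °C. TCA-precipitated 33P-MBP counted by liquid scintillation; IC50 from inhibition of 33P incorporation, Ki = IC50/(1+S/Km).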

A further experiment deals with T2, PAK4 (Homo sapiens, UniProt O96013).
T2 construct: purchased Invitrogen Corp. PV4212
T2 sequence (O96013 whole entry): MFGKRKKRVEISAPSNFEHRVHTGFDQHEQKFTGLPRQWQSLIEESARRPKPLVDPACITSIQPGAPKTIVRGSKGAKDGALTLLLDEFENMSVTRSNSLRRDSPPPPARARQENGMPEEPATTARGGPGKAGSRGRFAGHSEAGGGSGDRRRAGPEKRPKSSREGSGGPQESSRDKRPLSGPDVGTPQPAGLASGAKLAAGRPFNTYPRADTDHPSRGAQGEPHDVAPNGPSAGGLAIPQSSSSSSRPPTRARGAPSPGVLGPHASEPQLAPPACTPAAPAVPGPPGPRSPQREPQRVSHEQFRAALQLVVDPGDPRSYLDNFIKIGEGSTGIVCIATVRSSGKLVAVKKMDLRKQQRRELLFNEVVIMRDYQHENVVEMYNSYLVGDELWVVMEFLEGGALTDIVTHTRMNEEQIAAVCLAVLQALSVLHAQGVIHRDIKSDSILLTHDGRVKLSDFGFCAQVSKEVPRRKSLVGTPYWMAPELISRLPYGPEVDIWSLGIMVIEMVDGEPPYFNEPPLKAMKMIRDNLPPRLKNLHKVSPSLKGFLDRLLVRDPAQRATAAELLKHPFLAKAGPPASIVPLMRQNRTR
Put plainly: PAK4 enzyme inhibition test. To be noted: Ki=IC50/(1+S/Km); 33P bound to MBP, [γ-33P]ATP, 30° C. for 20 minutes; read-out: Ki value of PAK4 inhibitory activity. In kind it is biochemical. Summed up: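 Radiometric assay: PAK4 with MBP substrate and 40 μM [γ-^33P]ATP solution in Tris pH 7.5 buffer with MgCl2, DTT, EGTA, reacted 20 min at 30 °C. TCA-precipitated, washed ^33P-MBP counted by scintillation. IC50 from inhibition of ^33P incorporation; Ki = IC50/(1+S/Km).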

Experiment [1] relates to mouse imiquimod-induced psoriasis model. Briefly: Ear thickening suppression test using mouse imiquimod-induced psoriasis model. In kind it is in vivo. To be noted: topical, 120 h, thickness measured on day 5, BALB/c mice, read-out: rate of inhibition of increase in right auricle thickness; for inhibition in vivo at 0.01 %: application of a 0.01% methanol solution for 4 days; for inhibition in vivo at 1 %: application of a 1% solution in methanol for 4 days. The method in brief: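 Female BALB/c mice received test compound topically or orally, then 5 mg imiquimod cream (5%) on the right auricle 60 minutes later, daily for 4 days. Ear thickness was measured on day 5. Inhibition (%) of thickening was calculated relative to the solvent group, taken as 100%.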

Structures are written as SMILES.

For the compound `CC(C)(CO)C(NC(=O)N1Cc2c(NC(=O)C3([Si](C)(C)C)CCC3)n[nH]c2C1(C)C)c1ccc(F)cc1` (centres unmarked) [IV-946, N-[1-(4-Fluorophenyl)-3-hydroxy-2,2-dimethylpropyl]-6,6-dimethyl-3-[1-(trimethylsilyl)cyclobutanecarboxamido]-4,6-dihydropyrrolo[3,4-c]pyrazole-5(1H)-carboxamide], the Ki on CDK2 was at least 1000 nM; on PAK4 it was at least 500 nM. In addition, the inhibition in vivo at 0.01 % in experiment [1] was at least 50%.
`CC(C)(CO)C(NC(=O)N1Cc2c(NC(=O)C3([Si](C)(C)C)CCC3)n[nH]c2C1(C)C)c1cccc(F)c1` (centres unmarked) [IV-918, N-[1-(3-Fluorophenyl)-3-hydroxy-2,2-dimethylpropyl]-6,6-dimethyl-3-[1-(trimethylsilyl)cyclobutanecarboxamido]-4,6-dihydropyrrolo[3,4-c]pyrazole-5(1H)-carboxamide]: at PAK4, the Ki is at least 500 nM. Also, in experiment [1], the inhibition in vivo at 0.01 % is at least 50%.
As for `CC(C)(CO)C(NC(=O)N1Cc2c(NC(=O)C3([Si](C)(C)C)CCC3)n[nH]c2C1(C)C)c1ccccc1` (racemic) [IV-354, N-(3-Hydroxy-2,2-dimethyl-1-phenylpropyl)-6,6-dimethyl-3-[1-(trimethylsilyl)cyclobutanecarboxamido]-4,6-dihydropyrrolo[3,4-c]pyrazole-5(1H)-carboxamide], in experiment [1], the inhibition in vivo at 0.01 % was at least 50%.
Take `CC(C)(CO)C(NC(=O)N1Cc2c(NC(=O)C3([Si](C)(C)C)CCC3)n[nH]c2C1(C)C)c1ccccc1` (single isomer, unassigned; (-)) [IV-673, (−)-N-(3-Hydroxy-2,2-dimethyl-1-phenylpropyl)-6,6-dimethyl-3-[1-(trimethylsilyl)cyclobutanecarboxamido]-4,6-dihydropyrrolo[3,4-c]pyrazole-5(1H)-carboxamide]: the Ki at PAK4 is at least 500 nM. Further, in experiment [1], the inhibition in vivo at 0.01 % is at least 50%.
Regarding `CC(C)(O)C[C@@H](NC(=O)N1Cc2c(NC(=O)C3([Si](C)(C)C)CCC3)n[nH]c2C1(C)C)c1ccccc1` [IV-299, (R)—N-(3-Hydroxy-3-methyl-1-phenylbutyl)-6,6-dimethyl-3-[1-(trimethylsilyl)cyclobutanecarboxamido]-4,6-dihydropyrrolo[3,4-c]pyrazole-5(1H)-carboxamide], the Ki was at least 1000 nM on CDK2 and at least 500 nM on PAK4. Moreover, in experiment [1], the inhibition in vivo at 0.01 % is at least 50%.
`CCCO[C@@H](C(=O)N1Cc2c(NC(=O)C3([Si](C)(C)C)CCC3)n[nH]c2C1(C)C)c1ccccc1` [IV-1196, (R)—N-[6,6-Dimethyl-5-(2-phenyl-2-propoxyacetyl)-1,4,5,6-tetrahydropyrrolo[3,4-c]pyrazol-3-yl]-1-(trimethylsilyl)cyclobutanecarboxamide]: the Ki at CDK2 is at least 1000 nM. In addition, the inhibition in vivo at 0.01 % in experiment [1] is at least 50%.
In the case of `CC1(C)c2[nH]nc(NC(=O)C3([Si](C)(C)C)CCC3)c2CN1C(=O)[C@H](OC(F)(F)F)c1ccccc1` [IV-1184, (R)—N-{6,6-Dimethyl-5-[2-phenyl-2-(trifluoromethoxy)acetyl]-1,4,5,6-tetrahydropyrrolo[3,4-c]pyrazol-3-yl}-1-(trimethylsilyl)cyclobutanecarboxamide], the Ki at CDK2 is at least 1000 nM; on PAK4, at least 500 nM. For the same compound, in experiment [1], the inhibition in vivo at 0.01 % is at least 50%.
In the same order, the values of `CC1(C)c2[nH]nc(NC(=O)C3([Si](C)(C)C)CCC3)c2CN1C(=O)N[C@H](CC1(O)CC1)c1ccccc1` [IV-743, (R)—N-[2-(1-Hydroxycyclopropyl)-1-phenylethyl]-6,6-dimethyl-3-[1-(trimethylsilyl)cyclobutanecarboxamido]-4,6-dihydropyrrolo[3,4-c]pyrazole-5(1H)-carboxamide] are at least 1000 nM, at least 500 nM and at least 50%.
Take `COC[C@@H](NC(=O)N1Cc2c(NC(=O)C3([Si](C)(C)C)CCC3)n[nH]c2C1(C)C)c1ccccc1` [IV-123, (S)—N-(2-Methoxy-1-phenylethyl)-6,6-dimethyl-3-[1-(trimethylsilyl)cyclobutanecarboxamido]-4,6-dihydropyrrolo[3,4-c]pyrazole-5(1H)-carboxamide]: the inhibition constant Ki at CDK2 was at least 1000 nM; at PAK4, at least 500 nM. For the same compound, the inhibition in vivo at 1 % in experiment [1] was at least 50%.
`CO[C@@H](C(=O)N1Cc2c(NC(=O)C3([Si](C)(C)C)CCC3)n[nH]c2C1(C)C)c1ccccc1F` [IV-1383, (R)—N-{5-[2-(2-Fluorophenyl)-2-methoxyacetyl]-6,6-dimethyl-1,4,5,6-tetrahydropyrrolo[3,4-c]pyrazol-3-yl}-1-(trimethylsilyl)cyclobutanecarboxamide]: at PAK4, the Ki is at least 500 nM. In experiment [1], the inhibition in vivo at 0.01 % was at least 50%.
Regarding `CC1(C)c2[nH]nc(NC(=O)C3([Si](C)(C)C)CCC3)c2CN1C(=O)N[C@H](CO)c1ccccc1` [IV-114, (S)—N-(2-Hydroxy-1-phenylethyl)-6,6-dimethyl-3-[1-(trimethylsilyl)cyclobutanecarboxamido]-4,6-dihydropyrrolo[3,4-c]pyrazole-5(1H)-carboxamide], the values for the Ki at CDK2 and at PAK4 were at least 1000 nM and at least 500 nM, respectively. For the same compound, the inhibition in vivo at 1 % in experiment [1] was at least 50%.
Regarding `CCO[C@@H](C(=O)N1Cc2c(NC(=O)C3([Si](C)(C)C)CCC3)n[nH]c2C1(C)C)c1ccccc1` [IV-1188, (R)—N-[5-(2-Ethoxy-2-phenylacetyl)-6,6-dimethyl-1,4,5,6-tetrahydropyrrolo[3,4-c]pyrazol-3-yl]-1-(trimethylsilyl)cyclobutanecarboxamide], the inhibition in vivo at 0.01 % in experiment [1] is at least 50%.
As to `CC(C)(O)C[C@@H](NC(=O)N1Cc2c(NC(=O)C3([Si](C)(C)C)CCC3)n[nH]c2C1(C)C)c1ccc(F)cc1` [IV-939, (R)—N-[1-(4-Fluorophenyl)-3-hydroxy-3-methylbutyl]-6,6-dimethyl-3-[1-(trimethylsilyl)cyclobutanecarboxamido]-4,6-dihydropyrrolo[3,4-c]pyrazole-5(1H)-carboxamide], the inhibition constant (Ki) on CDK2 is at least 1000 nM. Further, the inhibition in vivo at 0.01 % in experiment [1] was at least 50%.
Take `CC1(C)c2[nH]nc(NC(=O)C3([Si](C)(C)C)CCC3)c2CN1C(=O)NC(c1ccccc1)C1(CO)CCC1` (centres unmarked) [IV-718, N-{[1-(Hydroxymethyl)cyclobutyl](phenyl)methyl}-6,6-dimethyl-3-[1-(trimethylsilyl)cyclobutanecarboxamido]-4,6-dihydropyrrolo[3,4-c]pyrazole-5(1H)-carboxamide]: the Ki was at least 1000 nM at CDK2 and at least 500 nM on PAK4. Moreover, the inhibition in vivo at 0.01 % in experiment [1] is at least 50%.
For the compound `CC[Si](C)(C)C1(C(=O)Nc2n[nH]c3c2CN(C(=O)[C@H](OC)c2ccccc2)C3(C)C)CCC1` [IV-1178, (R)-1-(Ethyldimethylsilyl)-N-[5-(2-methoxy-2-phenylacetyl)-6,6-dimethyl-1,4,5,6-tetrahydropyrrolo[3,4-c]pyrazol-3-yl] cyclobutanecarboxamide], the inhibition in vivo at 0.01 % in experiment [1] is at least 50%.
As for `CC(C)(O)C[C@@H](NC(=O)N1Cc2c(NC(=O)C3([Si](C)(C)C)CCC3)n[nH]c2C1(C)C)c1cccc(F)c1` [IV-911, (R)—N-[1-(3-Fluorophenyl)-3-hydroxy-3-methylbutyl]-6,6-dimethyl-3-[1-(trimethylsilyl)cyclobutanecarboxamido]-4,6-dihydropyrrolo[3,4-c]pyrazole-5(1H)-carboxamide], the Ki on CDK2 was at least 1000 nM; at PAK4 it was at least 500 nM. For the same compound, the inhibition in vivo at 0.01 % in experiment [1] is at least 50%.
For the compound `COC(C(=O)N1Cc2c(NC(=O)C3([Si](C)(C)C)CCC3)n[nH]c2C1(C)C)c1cccs1` (centres unmarked) [IV-1546, N-{5-[2-Methoxy-2-(thiophen-2-yl)acetyl]-6,6-dimethyl-1,4,5,6-tetrahydropyrrolo[3,4-c]pyrazol-3-yl}-1-(trimethylsilyl)cyclobutanecarboxamide], the Ki on PAK4 is at least 500 nM. Moreover, the inhibition in vivo at 0.01 % in experiment [1] was at least 50%.
For `CC1(C)c2[nH]nc(NC(=O)C3([Si](C)(C)C)CCC3)c2CN1C(=O)[C@H](OC1CC1)c1ccccc1` [IV-1208, (R)—N-[5-(2-Cyclopropoxy-2-phenylacetyl)-6,6-dimethyl-1,4,5,6-tetrahydropyrrolo[3,4-c]pyrazol-3-yl]-1-(trimethylsilyl)cyclobutanecarboxamide], the Ki at PAK4 was at least 500 nM. In experiment [1], the inhibition in vivo at 0.01 % was at least 50%.
In the case of `COC(C(=O)N1Cc2c(NC(=O)C3([Si](C)(C)C)CCC3)n[nH]c2C1(C)C)c1cccc(F)c1` (centres unmarked) [IV-1404, N-{5-[2-(3-Fluorophenyl)-2-methoxyacetyl]-6,6-dimethyl-1,4,5,6-tetrahydropyrrolo[3,4-c]pyrazol-3-yl}-1-(trimethylsilyl)cyclobutanecarboxamide], at PAK4, the Ki is at least 500 nM. The inhibition in vivo at 0.01 % in experiment [1] was at least 50%.
For the compound `CO[C@@H](C(=O)N1Cc2c(NC(=O)C3([Si](C)(C)C)CCC3)n[nH]c2C1(C)C)c1ccccc1` [IV-1175, (R)—N-[5-(2-Methoxy-2-phenylacetyl)-6,6-dimethyl-1,4,5,6-tetrahydropyrrolo[3,4-c]pyrazol-3-yl]-1-(trimethylsilyl)cyclobutanecarboxamide], the inhibition in vivo at 0.01 % in experiment [1] was at least 50%.
